Results taken from ChEMBL document CHEMBL5465560, “Selectivity Literature for EUbOPEN Chemogenomic Library” (2024).
Each block holds one compound with its values, some of them ahead of it.

Experiments:
[1] = target: T1, Inhibitor of nuclear factor kappa-B kinase subunit epsilon (Homo sapiens) (UniProt Q14164); details: at 10 µM
T1 sequence (whole entry): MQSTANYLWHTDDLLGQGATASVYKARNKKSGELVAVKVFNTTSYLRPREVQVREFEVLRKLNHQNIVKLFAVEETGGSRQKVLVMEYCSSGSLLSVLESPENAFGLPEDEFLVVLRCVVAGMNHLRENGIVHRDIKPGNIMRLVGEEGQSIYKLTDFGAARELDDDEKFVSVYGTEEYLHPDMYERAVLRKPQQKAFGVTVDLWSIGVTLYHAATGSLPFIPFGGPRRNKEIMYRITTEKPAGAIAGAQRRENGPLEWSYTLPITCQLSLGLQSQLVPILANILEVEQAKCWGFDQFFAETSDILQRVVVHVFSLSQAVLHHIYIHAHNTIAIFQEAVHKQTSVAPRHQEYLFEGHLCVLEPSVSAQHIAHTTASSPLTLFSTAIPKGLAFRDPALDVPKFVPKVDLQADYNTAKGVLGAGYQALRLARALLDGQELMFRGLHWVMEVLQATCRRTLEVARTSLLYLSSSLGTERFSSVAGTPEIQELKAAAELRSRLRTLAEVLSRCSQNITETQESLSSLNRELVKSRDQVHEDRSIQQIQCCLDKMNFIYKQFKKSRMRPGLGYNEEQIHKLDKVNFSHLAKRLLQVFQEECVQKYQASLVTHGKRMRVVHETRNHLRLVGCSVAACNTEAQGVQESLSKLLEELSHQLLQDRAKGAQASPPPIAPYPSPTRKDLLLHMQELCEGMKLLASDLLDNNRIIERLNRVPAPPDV

[2] = target: Interleukin-1 receptor-associated kinase 1 (Homo sapiens) (UniProt P51617); assay: Selectivity interaction (KinomeScan (DiscoverX)) EUB0001049a IRAK1; details: at 1 µM
Interleukin-1 receptor-associated kinase 1 (Homo sapiens), sequence (P51617 whole entry, looked up): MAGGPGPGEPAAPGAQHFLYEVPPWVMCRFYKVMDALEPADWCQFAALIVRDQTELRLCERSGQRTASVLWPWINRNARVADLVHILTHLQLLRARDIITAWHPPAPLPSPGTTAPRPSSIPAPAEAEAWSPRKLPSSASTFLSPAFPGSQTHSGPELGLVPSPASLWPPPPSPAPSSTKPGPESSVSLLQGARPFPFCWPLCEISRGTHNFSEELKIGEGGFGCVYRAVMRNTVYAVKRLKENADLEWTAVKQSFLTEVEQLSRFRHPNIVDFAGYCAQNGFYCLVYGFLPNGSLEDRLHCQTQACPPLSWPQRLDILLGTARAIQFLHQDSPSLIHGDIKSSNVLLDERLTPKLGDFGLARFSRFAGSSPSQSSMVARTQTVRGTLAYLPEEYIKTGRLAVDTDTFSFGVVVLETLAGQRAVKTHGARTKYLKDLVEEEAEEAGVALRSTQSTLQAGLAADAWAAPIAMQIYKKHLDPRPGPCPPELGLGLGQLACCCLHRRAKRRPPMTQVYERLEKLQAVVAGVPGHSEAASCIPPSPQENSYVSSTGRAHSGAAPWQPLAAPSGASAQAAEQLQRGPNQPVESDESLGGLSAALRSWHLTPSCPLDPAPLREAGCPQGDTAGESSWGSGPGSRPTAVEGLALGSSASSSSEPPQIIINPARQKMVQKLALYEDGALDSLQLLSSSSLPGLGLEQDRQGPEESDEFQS

[3] = target: Dual specificity mitogen-activated protein kinase kinase 2 (Homo sapiens) (UniProt P36507); assay: Selectivity interaction (Kinase panel (Invitrogen)) EUB0000639a MAP2K2; details: at 200 nM
Dual specificity mitogen-activated protein kinase kinase 2 (Homo sapiens), sequence (P36507 whole entry): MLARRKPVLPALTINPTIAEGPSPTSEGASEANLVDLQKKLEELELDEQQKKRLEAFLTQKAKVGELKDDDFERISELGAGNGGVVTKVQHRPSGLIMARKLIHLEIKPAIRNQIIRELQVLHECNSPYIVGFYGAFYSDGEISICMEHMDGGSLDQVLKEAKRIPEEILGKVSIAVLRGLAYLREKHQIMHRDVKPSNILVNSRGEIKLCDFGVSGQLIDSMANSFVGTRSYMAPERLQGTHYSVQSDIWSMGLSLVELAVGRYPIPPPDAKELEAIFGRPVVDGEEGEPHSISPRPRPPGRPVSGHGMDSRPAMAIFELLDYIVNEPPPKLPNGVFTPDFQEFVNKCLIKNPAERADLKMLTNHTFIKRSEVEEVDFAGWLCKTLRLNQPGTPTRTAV

[4] = target: E3 ubiquitin-protein ligase TRIM33 (Homo sapiens) (UniProt Q9UPN9); assay: Selectivity interaction (Bromodomain panel (DSF asssay)) EUB0000270b TRIM33
[5] = target: Mitogen-activated protein kinase 10 (Homo sapiens, UniProt P53779); assay: Selectivity interaction (Kinase panel (Z-LYTE Assay)) EUB0001632a MAPK10; details: at 10 µM
[6] = target: Insulin receptor-related protein (Homo sapiens) (UniProt P14616); details: at 10 µM
[7] = target: Serine/threonine-protein kinase Chk2 (Homo sapiens) (UniProt O96017); assay: Selectivity interaction (KinomeScan (DiscoverX)) EUB0000595a CHEK2; details: at 10 µM
[8] = target: Tyrosine-protein kinase Fer (Homo sapiens) (UniProt P16591); assay: Selectivity interaction (KinomeScan (DiscoverX)) EUB0000229b FER; details: at 10 µM
Tyrosine-protein kinase Fer (Homo sapiens), sequence (P16591 whole entry, looked up): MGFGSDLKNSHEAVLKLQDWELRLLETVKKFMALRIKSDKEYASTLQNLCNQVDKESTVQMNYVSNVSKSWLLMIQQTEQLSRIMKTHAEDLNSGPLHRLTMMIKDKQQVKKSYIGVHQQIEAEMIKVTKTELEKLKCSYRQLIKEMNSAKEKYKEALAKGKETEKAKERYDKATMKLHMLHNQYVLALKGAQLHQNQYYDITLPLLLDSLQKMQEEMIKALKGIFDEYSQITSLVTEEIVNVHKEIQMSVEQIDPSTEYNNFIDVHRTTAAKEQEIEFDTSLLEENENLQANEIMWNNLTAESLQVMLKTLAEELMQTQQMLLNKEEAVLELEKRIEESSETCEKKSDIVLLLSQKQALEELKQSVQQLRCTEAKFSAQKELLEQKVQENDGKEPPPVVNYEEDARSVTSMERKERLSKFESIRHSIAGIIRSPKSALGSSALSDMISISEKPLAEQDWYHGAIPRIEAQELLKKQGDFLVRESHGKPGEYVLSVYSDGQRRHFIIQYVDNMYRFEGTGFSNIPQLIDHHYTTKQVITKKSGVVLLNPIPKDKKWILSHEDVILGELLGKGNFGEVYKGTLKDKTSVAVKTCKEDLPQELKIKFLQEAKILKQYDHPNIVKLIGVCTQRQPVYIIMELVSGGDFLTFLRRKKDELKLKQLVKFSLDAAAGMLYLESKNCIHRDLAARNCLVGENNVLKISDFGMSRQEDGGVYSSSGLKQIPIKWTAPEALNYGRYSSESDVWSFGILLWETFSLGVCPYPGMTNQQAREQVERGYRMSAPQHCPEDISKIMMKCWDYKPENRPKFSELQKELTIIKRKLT

[9] = target: T2, Myosin light chain kinase family member 4 (Homo sapiens) (UniProt Q86YV6); assay: Selectivity interaction (KinomeScan (DiscoverX)) EUB0000229b MYLK4; details: at 10 µM
T2 sequence (whole entry): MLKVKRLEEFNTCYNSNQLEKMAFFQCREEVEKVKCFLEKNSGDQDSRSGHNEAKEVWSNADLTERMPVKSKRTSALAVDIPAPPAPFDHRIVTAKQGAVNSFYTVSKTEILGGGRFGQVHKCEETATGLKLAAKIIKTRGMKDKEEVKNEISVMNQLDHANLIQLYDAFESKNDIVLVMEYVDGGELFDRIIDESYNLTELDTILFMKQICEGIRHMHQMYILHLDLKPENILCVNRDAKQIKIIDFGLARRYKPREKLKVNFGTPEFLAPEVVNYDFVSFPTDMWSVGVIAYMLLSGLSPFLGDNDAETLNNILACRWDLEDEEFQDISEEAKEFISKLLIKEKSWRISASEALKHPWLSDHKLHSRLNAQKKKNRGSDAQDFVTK

[10] = target: Myosin light chain kinase 2, skeletal/cardiac muscle (Homo sapiens) (UniProt Q9H1R3); assay: Selectivity interaction (KinomeScan (DiscoverX)) EUB0001079a MYLK2; details: at 1 µM
Myosin light chain kinase 2, skeletal/cardiac muscle (Homo sapiens), sequence (Q9H1R3 whole entry): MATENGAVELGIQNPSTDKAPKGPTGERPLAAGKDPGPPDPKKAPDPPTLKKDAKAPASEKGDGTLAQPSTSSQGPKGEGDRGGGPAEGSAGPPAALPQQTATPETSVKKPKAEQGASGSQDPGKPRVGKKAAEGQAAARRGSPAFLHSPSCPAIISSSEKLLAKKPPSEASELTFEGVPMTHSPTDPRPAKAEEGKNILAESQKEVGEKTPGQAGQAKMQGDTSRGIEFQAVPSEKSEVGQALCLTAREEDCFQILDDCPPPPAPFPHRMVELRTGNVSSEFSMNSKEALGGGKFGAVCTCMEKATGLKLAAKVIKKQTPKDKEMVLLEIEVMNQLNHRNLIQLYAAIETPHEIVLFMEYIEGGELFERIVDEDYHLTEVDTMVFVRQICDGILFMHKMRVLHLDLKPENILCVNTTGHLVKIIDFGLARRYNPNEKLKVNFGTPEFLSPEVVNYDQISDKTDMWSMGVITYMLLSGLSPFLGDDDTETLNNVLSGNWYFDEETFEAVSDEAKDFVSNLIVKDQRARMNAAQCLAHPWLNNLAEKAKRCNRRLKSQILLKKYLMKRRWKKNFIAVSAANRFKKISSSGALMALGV

[11] = target: T3, Interleukin-1 receptor-associated kinase 4 (Homo sapiens) (UniProt Q9NWZ3); assay: Selectivity interaction (Upstate Kinase Profiler service (Millipore)) EUB0000056c IRAK4; details: at 1 µM
T3 sequence (whole entry): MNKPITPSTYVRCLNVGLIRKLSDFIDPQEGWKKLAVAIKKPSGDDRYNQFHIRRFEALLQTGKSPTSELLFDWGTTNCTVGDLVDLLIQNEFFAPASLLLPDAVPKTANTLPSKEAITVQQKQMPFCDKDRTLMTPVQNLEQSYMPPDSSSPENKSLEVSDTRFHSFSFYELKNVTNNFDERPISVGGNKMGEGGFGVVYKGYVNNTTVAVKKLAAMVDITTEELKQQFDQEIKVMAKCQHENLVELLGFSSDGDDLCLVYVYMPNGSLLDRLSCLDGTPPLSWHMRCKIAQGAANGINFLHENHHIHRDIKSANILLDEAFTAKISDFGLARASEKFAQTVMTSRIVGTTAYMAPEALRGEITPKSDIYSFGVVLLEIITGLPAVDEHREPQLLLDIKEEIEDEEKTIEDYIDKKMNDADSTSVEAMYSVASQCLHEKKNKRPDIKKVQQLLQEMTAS

[12] = target: Tyrosine-protein kinase Fyn (Homo sapiens) (UniProt P06241); assay: Selectivity interaction (KinomeScan (DiscoverX)) EUB0000655a FYN; details: at 10 µM
Tyrosine-protein kinase Fyn (Homo sapiens), sequence (P06241 2-537 limits assumed): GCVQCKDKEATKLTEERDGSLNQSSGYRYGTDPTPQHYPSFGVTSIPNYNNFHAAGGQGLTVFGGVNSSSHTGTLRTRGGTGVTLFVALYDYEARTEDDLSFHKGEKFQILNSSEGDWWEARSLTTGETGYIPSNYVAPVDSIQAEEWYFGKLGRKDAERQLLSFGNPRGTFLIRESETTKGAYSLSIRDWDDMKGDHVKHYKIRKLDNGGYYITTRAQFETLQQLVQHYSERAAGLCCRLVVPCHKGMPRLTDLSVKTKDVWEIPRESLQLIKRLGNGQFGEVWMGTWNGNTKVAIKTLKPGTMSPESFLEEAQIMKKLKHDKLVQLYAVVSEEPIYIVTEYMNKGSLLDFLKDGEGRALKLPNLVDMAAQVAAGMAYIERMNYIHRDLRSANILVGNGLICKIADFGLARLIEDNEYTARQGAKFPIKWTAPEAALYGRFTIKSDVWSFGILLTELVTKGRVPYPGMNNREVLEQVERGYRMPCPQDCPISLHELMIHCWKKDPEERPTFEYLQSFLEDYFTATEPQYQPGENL

[13] = target: Cyclin-dependent kinase 2 (Homo sapiens, UniProt P24941); assay: Selectivity interaction (KinomeScan (DiscoverX)) EUB0001619a CDK2; details: at 1 µM
[14] = target: Ephrin type-A receptor 5 (Homo sapiens) (UniProt P54756); assay: Selectivity interaction (Kinase panel (DSF assay)) EUB0001559a EPHA5
Ephrin type-A receptor 5 (Homo sapiens), sequence (P54756 whole entry): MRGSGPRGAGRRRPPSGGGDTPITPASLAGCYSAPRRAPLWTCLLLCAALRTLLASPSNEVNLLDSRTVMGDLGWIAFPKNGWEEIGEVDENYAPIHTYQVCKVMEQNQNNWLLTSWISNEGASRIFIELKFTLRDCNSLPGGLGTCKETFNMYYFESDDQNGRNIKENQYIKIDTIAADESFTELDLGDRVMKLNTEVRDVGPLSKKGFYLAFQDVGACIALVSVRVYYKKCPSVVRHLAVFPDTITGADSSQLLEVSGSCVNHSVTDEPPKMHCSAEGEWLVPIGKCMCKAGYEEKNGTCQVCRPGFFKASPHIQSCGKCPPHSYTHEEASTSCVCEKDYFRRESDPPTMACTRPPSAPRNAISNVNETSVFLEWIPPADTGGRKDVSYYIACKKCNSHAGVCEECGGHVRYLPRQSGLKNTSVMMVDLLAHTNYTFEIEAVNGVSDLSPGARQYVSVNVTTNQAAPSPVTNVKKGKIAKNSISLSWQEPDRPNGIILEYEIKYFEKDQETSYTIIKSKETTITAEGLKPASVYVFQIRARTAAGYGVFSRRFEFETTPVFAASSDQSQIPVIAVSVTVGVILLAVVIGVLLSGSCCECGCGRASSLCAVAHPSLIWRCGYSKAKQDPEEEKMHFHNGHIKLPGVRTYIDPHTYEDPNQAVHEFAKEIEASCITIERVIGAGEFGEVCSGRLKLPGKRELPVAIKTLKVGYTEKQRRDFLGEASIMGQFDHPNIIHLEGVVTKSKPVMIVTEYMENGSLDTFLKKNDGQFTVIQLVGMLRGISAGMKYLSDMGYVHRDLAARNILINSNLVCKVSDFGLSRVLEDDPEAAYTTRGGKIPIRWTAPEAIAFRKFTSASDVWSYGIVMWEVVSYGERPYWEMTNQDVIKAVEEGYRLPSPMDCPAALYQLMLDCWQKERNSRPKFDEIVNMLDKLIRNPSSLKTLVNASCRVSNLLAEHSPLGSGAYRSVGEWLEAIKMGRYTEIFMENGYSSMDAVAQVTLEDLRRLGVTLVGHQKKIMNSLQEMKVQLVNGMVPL

[15] = target: SRSF protein kinase 2 (Homo sapiens) (UniProt P78362); assay: Selectivity interaction (KinomeScan (DiscoverX)) EUB0000607a SRPK2; details: at 10 µM
[16] = target: Mitogen-activated protein kinase kinase kinase 10 (Homo sapiens) (UniProt Q02779); assay: Selectivity interaction (Kinase panel (KiNativ target engagement assay in Jurkat cells)) EUB0001635a MAP3K10; assay type: cell-based; details: Selectivity number of off-targets 0.0, Selectivity number of targets 233.0, Source Knowledge https://www.sciencedirect.com/science/article/pii/S2451945619300674?via%3Dihub, at 1 µM
[17] = target: Serine/threonine-protein kinase PAK 1 (Homo sapiens) (UniProt Q13153); assay: Selectivity interaction (Kinase panel (DSF assay)) EUB0001558a PAK1
Serine/threonine-protein kinase PAK 1 (Homo sapiens), sequence (Q13153 whole entry): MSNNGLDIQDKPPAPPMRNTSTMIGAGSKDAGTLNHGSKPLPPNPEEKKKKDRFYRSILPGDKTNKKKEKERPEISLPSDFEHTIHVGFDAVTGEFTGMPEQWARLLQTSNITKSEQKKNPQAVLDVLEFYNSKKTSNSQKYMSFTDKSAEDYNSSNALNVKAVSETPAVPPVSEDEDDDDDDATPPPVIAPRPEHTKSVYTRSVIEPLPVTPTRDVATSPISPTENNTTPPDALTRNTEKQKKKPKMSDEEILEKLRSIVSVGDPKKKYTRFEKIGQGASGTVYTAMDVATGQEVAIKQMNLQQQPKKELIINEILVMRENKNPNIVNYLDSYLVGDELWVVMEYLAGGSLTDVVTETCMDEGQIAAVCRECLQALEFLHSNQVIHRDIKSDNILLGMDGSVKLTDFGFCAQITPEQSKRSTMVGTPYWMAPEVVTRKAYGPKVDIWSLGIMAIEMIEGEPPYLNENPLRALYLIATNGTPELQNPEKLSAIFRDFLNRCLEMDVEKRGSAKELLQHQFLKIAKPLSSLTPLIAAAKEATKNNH

Structure (SMILES): Cc1cc([C@@H](C)Nc2ccccc2C(=O)O)c2nc(N3CCOCC3)cc(=O)n2c1 [AZD-6482]
- % of control [1]: 85%

Structure (SMILES): COc1cc(Nc2nc(C)cc(-c3cnn4nc(OC)ccc34)n2)cc(C(F)(F)F)c1
- % of control [2]: 91%

- % of inhibition [3]: 13.2%
Structure (SMILES): CC[C@@H]1[C@H](F)C(=O)N[C@@H]1COc1nccc2cc(C(N)=O)c(OC)cc12 [ZIMLOVISERTIB]

- dTM [4]: -0.48 K
Structure (SMILES): Cc1cc(CN)cc(C)c1-c1ncn(C)c1-c1cncn1C

- % of control [5]: 3.04%
Structure (SMILES): Cn1cc(-n2cnc3c(NCc4nc5cc(Cl)c(Cl)cc5[nH]4)nc(N4CCOCC4)nc32)cn1

- % of control [6]: 100%
Structure (SMILES): CCN(CC)CCCCNc1ncc2cc(-c3cc(OC)cc(OC)c3)c(NC(=O)NC(C)(C)C)nc2n1

Structure (SMILES): COCC(=O)NC/C=C/c1ccc2ncnc(Nc3ccc(Oc4ccc(C)nc4)c(C)c3)c2c1 [CP-724714]
- % of control [7]: 55%

Structure (SMILES): COc1cc(N(C)c2ccnc3ccc(C(F)(F)F)cc23)cc(OC)c1OC
- % binding [8]: 95%
- % binding [9]: 98%

Structure (SMILES): Nc1cnc(N2CCc3cc(S(=O)(=O)Nc4c(F)cc(Cl)cc4F)cc(N4CCCC4=O)c32)nc1 [TP-020n]
- % of control [10]: 87%

- % of inhibition [11]: 13%
Structure (SMILES): Cc1ccc(-c2ccc3c(ccc4sc5c(c43)NC[C@@H](C)NC5=O)n2)cn1

Structure (SMILES): CN(C)CCOc1ccc(-c2nc(-c3ccncc3)c(-c3ccc4c(c3)CC/C4=N\O)[nH]2)cc1
- % of control [12]: 79%

Structure (SMILES): N#Cc1cccc(-c2c[nH]c3ncnc(N4CCOCC4)c23)c1
- % of control [13]: 89%

- dTM [14]: -0.3 K
Structure (SMILES): CN(C(=O)c1cnn2cccnc12)c1cc2c(cc1N1CCOCC1)C(=O)N(C[C@@H](F)C(C)(C)O)C2

Structure (SMILES): CNC(=O)Nc1ccc(-c2nc(N3CC4CCC(C3)O4)c3cnn(C4CCC5(CC4)OCCO5)c3n2)cc1
- % of control [15]: 90%

Structure (SMILES): C=CC(=O)Nc1ccc(C(=O)Nc2[nH]nc3c2CN(C(=O)N[C@H](CN(C)C)c2ccccc2)C3(C)C)cc1
- % of engagement [16]: -31.2%

Structure (SMILES): CC(C)(O)[C@H](F)CN1Cc2cc(NC(=O)c3cnn4cccnc34)c(N3CCOCC3)cc2C1=O
- dTM [17]: -0.1 K
